Structures can show the parent of a compound that is named as a salt.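 96-well plates; 48 h exposure; 5 concentrations. Endpoints by linear interpolation between flanking doses. Not reached: highest tested concentration assigned. GI50 = concentration required for 50% inhibition of growth.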 Active and inactive are the calls of the source. Cut-off read from the data, not from the text of the source: active = GI50 up to about 1.1 µM and inactive = higher.

Test systems include OVCAR-3; SN12C; U-251; CAKI-1; A549; MDA-MB-231; SK-MEL-5; OVCAR-4; SF-295; HOP-92; M14; SW-620; OVCAR-8; NCI-H522; MCF7; HT-29; PC-3; SK-MEL-28; RXF 393; HCT-15.
Holding throughout (assay): NCI-60 cell line screen, 48 h

`CC(O)CC(=O)CO[C@H]1[C@H](O)[C@@H](O)[C@@H](O)[C@@H]2NC(=O)c3c(cc4c(c3O)OCO4)[C@H]21` (stereo not given in full): the GI50 was 0.0457 µM (active) in the assay on OVCAR-3; 0.0266 µM (active) with SN12C; < 0.015 µM (active) with U-251; 0.512 µM (active) in the assay on CAKI-1; 0.042 µM (active) in the assay on A549; 0.054 µM (active) with MDA-MB-231. Besides, the GI50 in the assay on SK-MEL-5 was 0.0137 µM (active); with OVCAR-4, 0.0483 µM (active); in the assay with SF-295 it was 0.0299 µM (active); in the assay on HOP-92, 0.0377 µM (active); with M14, 0.0361 µM (active); in the assay with SW-620 it was 0.109 µM (active). The GI50 in the assay with OVCAR-8 is 0.0332 µM (active); in the assay with NCI-H522, 0.0242 µM (active); with MCF7, 0.0194 µM (active); in the assay with HT-29, 0.0258 µM (active); with PC-3, 0.0272 µM (active); with SK-MEL-28, < 0.0201 µM (active). The GI50 with RXF 393 is 0.0208 µM (active); with HCT-15, 0.256 µM.

In the case of `CCN(CC)CCCNc1ccc2nnn3c4ccc(O)cc4c(=O)c1c23`, the GI50 with OVCAR-3 is 11.4 µM (inactive); in the assay with SN12C, 5.57 µM (inactive); in the assay with U-251, 2.33 µM (inactive); in the assay with CAKI-1, 4.08 µM (inactive); with A549, 1.58 µM (inactive); with MDA-MB-231, 7.74 µM (inactive). Also, the GI50 is 7.55 µM (inactive) in the assay on SK-MEL-5; 6.35 µM (inactive) with OVCAR-4; 9.51 µM (inactive) in the assay with SF-295; 14.6 µM (inactive) in the assay on HOP-92; 9.27 µM (inactive) in the assay on M14; 2.69 µM (inactive) in the assay with SW-620. Moreover, the GI50 was 2.97 µM (inactive) in the assay on OVCAR-8; 3.05 µM (inactive) with NCI-H522; 14 µM (inactive) in the assay with MCF7; 2.65 µM (inactive) in the assay with HT-29; 6.5 µM (inactive) in the assay with PC-3; 18 µM (inactive) with SK-MEL-28. The GI50 is 1.64 µM (inactive) with RXF 393 and 5.06 µM with HCT-15.

`COC(=O)C(=O)C(C(=O)C(N)=O)c1nc2ccc(C(=O)c3ccccc3)cc2nc1O` (stereo not given): the GI50 is > 100 µM (inactive) with OVCAR-3; > 100 µM (inactive) in the assay with SN12C; > 100 µM (inactive) with U-251; 56 µM (inactive) with CAKI-1; > 100 µM (inactive) in the assay on A549; > 100 µM (inactive) in the assay with MDA-MB-231. The GI50 was 45.7 µM (inactive) in the assay with SK-MEL-5; 28.6 µM (inactive) in the assay on OVCAR-4; 79.8 µM (inactive) in the assay with SF-295; > 100 µM (inactive) in the assay with HOP-92; > 100 µM (inactive) in the assay on M14; > 100 µM (inactive) in the assay on SW-620. The GI50 in the assay on OVCAR-8 was 53.8 µM (inactive); with NCI-H522, 40.7 µM (inactive); in the assay on MCF7, 63.8 µM (inactive); in the assay with HT-29 it was > 100 µM (inactive); in the assay with PC-3 it was 75.2 µM (inactive); with SK-MEL-28 it was > 100 µM (inactive). In addition, the values for the GI50 in the assay on RXF 393 and in the assay on HCT-15 were 69.7 µM (inactive) and 55.7 µM, respectively.

Turning to `CN1CCC(CN2c3ccccc3Sc3ccccc32)C1` (stereo not given) [METHDILAZINE HYDROCHLORIDE], the GI50 in the assay with OVCAR-3 was 14.2 µM (inactive); in the assay with SN12C, 15.3 µM (inactive); in the assay with U-251, 13.7 µM (inactive); in the assay with CAKI-1, 14.7 µM (inactive); in the assay on A549, 16.2 µM (inactive); in the assay on MDA-MB-231 it was 14 µM (inactive). The GI50 was 13.7 µM (inactive) with SK-MEL-5; 13.9 µM (inactive) with OVCAR-4; 16.1 µM (inactive) in the assay on SF-295; 12.8 µM (inactive) with HOP-92; 10.5 µM (inactive) with M14; 19.2 µM (inactive) in the assay on SW-620. Also, the GI50 with OVCAR-8 was 16.5 µM (inactive); in the assay with NCI-H522 it was 16.7 µM (inactive); in the assay with MCF7 it was 17.2 µM (inactive); with HT-29, 10.9 µM (inactive); in the assay with PC-3, 12.4 µM (inactive); in the assay on SK-MEL-28, 6.44 µM (inactive). In addition, the values for the GI50 with RXF 393 and with HCT-15 were 3.5 µM (inactive) and 16.2 µM, respectively.

Take `C/C(=C\COc1cc(O)c2c(c1)C(=O)c1cc(C)cc(O)c1C2=O)CCC1OC1(C)C` (stereo not given): the GI50 in the assay with OVCAR-3 was > 100 µM (inactive); in the assay on SN12C, > 100 µM (inactive); in the assay on U-251, 63.8 µM (inactive); in the assay with CAKI-1, 21 µM (inactive); in the assay with A549, 85.5 µM (inactive); with MDA-MB-231 it was > 100 µM (inactive). For the same compound, the GI50 is 31.2 µM (inactive) in the assay with SK-MEL-5; 37.8 µM (inactive) in the assay with OVCAR-4; > 100 µM (inactive) in the assay on SF-295; 29.4 µM (inactive) with HOP-92; > 100 µM (inactive) in the assay on M14; > 10 µM (inactive) with SW-620. The GI50 was 47.9 µM (inactive) with OVCAR-8; 69.8 µM (inactive) in the assay on NCI-H522; 38.4 µM (inactive) with MCF7; > 100 µM (inactive) in the assay on HT-29; > 100 µM (inactive) in the assay with PC-3; > 100 µM (inactive) with SK-MEL-28. The figures for the GI50 in the assay on RXF 393 and in the assay with HCT-15 were 30.2 µM (inactive) and 84.3 µM, respectively.

As for `CCCCn1c2c(n(CCCC)c1=[Se])-c1c(n(CCCC)c(=[Se])n1CCCC)S[Se][Se]S2`, the GI50 with OVCAR-3 was 6.95 µM (inactive); in the assay with SN12C it was 24.6 µM (inactive); with U-251, 11.4 µM (inactive); in the assay on CAKI-1, 5.3 µM (inactive); in the assay on A549, 20.7 µM (inactive); with MDA-MB-231, 14.5 µM (inactive). Further, the GI50 with SK-MEL-5 was 16.6 µM (inactive); in the assay on OVCAR-4, 9.27 µM (inactive); in the assay with SF-295, 4.55 µM (inactive); in the assay with HOP-92, 2.01 µM (inactive); with M14 it was 25.6 µM (inactive); with SW-620 it was 6.01 µM (inactive). Besides, the GI50 with OVCAR-8 was 16.9 µM (inactive); in the assay with NCI-H522 it was 1.61 µM (inactive); in the assay on MCF7, 25.4 µM (inactive); in the assay on HT-29 it was 26.5 µM (inactive); with PC-3 it was 14.9 µM (inactive); in the assay with SK-MEL-28, 39.1 µM (inactive). Also, the GI50 is 21.8 µM (inactive) in the assay with RXF 393 and 13.7 µM with HCT-15.

Turning to `CC(=O)OCC1OC(OCCCOP(=O)(OCCC#N)OCC2OC(n3cnc4c(N)ncnc43)C(OC(=O)c3ccccc3)C2OC(=O)c2ccccc2)C(OC(C)=O)C(OC(C)=O)C1OC(C)=O` (stereo not given), the GI50 in the assay with OVCAR-3, in the assay with SN12C, in the assay with U-251, in the assay on CAKI-1, in the assay with A549 and in the assay on MDA-MB-231 was > 100 µM (inactive) each time. The GI50 in the assay with SK-MEL-5, in the assay on OVCAR-4, with SF-295, with HOP-92, with M14 and in the assay on SW-620 was > 100 µM (inactive) each time. Besides, the GI50 in the assay on OVCAR-8 was > 100 µM (inactive); with NCI-H522 it was 16.3 µM (inactive); in the assay on MCF7 it was > 100 µM (inactive); in the assay on HT-29, > 100 µM (inactive); in the assay on PC-3 it was > 100 µM (inactive); in the assay with SK-MEL-28, > 100 µM (inactive). Also, the GI50 in the assay with RXF 393 was > 100 µM (inactive); with HCT-15, more than 100 µM.
